In US10273283B2, “Modified integrin polypeptides, modified integrin polypeptide dimers, and uses thereof” (THE CHILDREN'S MEDICAL CENTER CORPORATION, priority 2014, dated 2019):
Ends that are not written are not given here.

Legend:
αvβ6 headpiece = molecular target: T1, αvβ6 headpiece (Homo sapiens, UniProt P06756+P18564, I287C/M430C); assay: Competition binding with FITC-[…] by fluorescence anisotropy, αvβ6 headpiece; conditions: FIG. 1C
T1 construct: The αv headpiece (residues 1-594) with M400C mutation was followed by a 3C protease site; β6 headpiece residues 1-474 with I270C or β3 headpiece residues 1-472 with Q267C were followed by the 3C site; 3C protease site (C, cleaved yes); ACID coiled-coil (C, cleaved yes); Strep-II tag (C, cleaved yes); His tag (C, cleaved yes); 3C site (C, cleaved yes); BASE coiled-coil (C, cleaved yes); made in house; host or cells: HEK293s Gnt I- cells
Procedure: (§1) Ligands bind to the integrin headpiece, which contains the α-subunit β-propeller domain and thigh domain, and the β-subunit βI, hybrid, PSI, and EGF1 domain. […] (SEQ ID NO: 68), peptide affinity for the αvβ6 and αvβ3 headpiece was measured with fluorescence anisotropy.
(§2) Binding affinities were calculated as described in Ref. 23. […] Competition binding assays used 200 nM αvβ6 or 4 μM αvβ3 headpiece, 5 nM of fluorescence probe, and competing peptide serially diluted in 3-fold decrement from 500 μM to 0.5 nM.

αvβ3 headpiece = molecular target: T2, αvβ3 headpiece (Homo sapiens, UniProt P05106+P06756, M430C/Q293C); assay: Competition binding with FITC-[…] by fluorescence anisotropy, αvβ3 headpiece; conditions: FIG. 1D
T2 construct: The αv headpiece (residues 1-594) with M400C mutation was followed by a 3C protease site; β6 headpiece residues 1-474 with I270C or β3 headpiece residues 1-472 with Q267C were followed by the 3C site; 3C protease site (C, cleaved yes); ACID coiled-coil (C, cleaved yes); Strep-II tag (C, cleaved yes); His tag (C, cleaved yes); 3C site (C, cleaved yes); BASE coiled-coil (C, cleaved yes); made in house; host or cells: HEK293s Gnt I- cells
Procedure: as §1, §2

integrin αvβ6 headpiece = molecular target: T3, integrin αvβ6 headpiece (Homo sapiens, UniProt P06756+P18564, I287C/M430C); assay: Saturation binding of fluorescence probe to αvβ6 headpiece by fluorescence anisotropy; conditions: buffer at indicated pH, FIG. 2C
T3 construct: The αv headpiece (residues 1-594) with M400C mutation was followed by a 3C protease site; β6 headpiece residues 1-474 with I270C or β3 headpiece residues 1-472 with Q267C were followed by the 3C site; 3C protease site (C, cleaved yes); ACID coiled-coil (C, cleaved yes); Strep-II tag (C, cleaved yes); His tag (C, cleaved yes); 3C site (C, cleaved yes); BASE coiled-coil (C, cleaved yes); made in house; host or cells: HEK293s Gnt I- cells
Procedure: A fluorescence probe for integrin αvβ6, the sequence of which is FITC-[…] (SEQ ID NO: 68), was synthesized. […] By competition binding assay, the affinities of Different Ligands were Measured.
Fluorescence anisotropy was in 150 mM NaCl, 1 mM Mg^2+/Ca^2+, 20 mM HEPES, pH 7.4 or buffer at indicated pH with 5 nM fluorescence probe (FITC-pro-TGF-β3 peptide, FITC-[…] (SEQ ID NO: 68)). Binding affinities were calculated as described in Ref. 23. In saturation binding assays, the anisotropy of the fluorescence probe was measured while αvβ6 headpiece (starting at 2.67 μM) or αvβ3 headpiece (starting at 75 μM) was serially diluted in 3-fold decrements. Competition binding assays used 200 nM αvβ6 or 4 μM αvβ3 headpiece, 5 nM of fluorescence probe, and competing peptide serially diluted in 3-fold decrement from 500 μM to 0.5 nM.

| Fold lower affinity for αvβ6 than the pro-TGF-β1/β3 peptides (αvβ6 headpiece) | Fold lower affinity for αvβ3 than for αvβ6 (αvβ3 headpiece) | Sequence | Effect of pH on affinity of αvβ6 for the peptide (integrin αvβ6 headpiece) |
| --- | --- | --- | --- |
| 1,000 fold |  | TSGDQKTIK [pro-TGF-β2 peptide] |  |
|  | 1,000 fold | GRGDLGRLK [pro-TGF-β3 nonapeptide, GRGDLGRLK (SEQ ID NO: 75)] | sharp decrease in affinity between pH 7 and 6 |
